Reference: patent US6603044B1, “Phthalamide derivatives, or salt thereof agrohorticultural insecticide, and method for using the same” (Nihon Nohyaku Co., Ltd., priority 1998, dated 2003)

Experiments:
Assay type in all cases: in vivo
[1] = test system: Diamond Back Moth (Plutella xylostella); test: Insecticidal effect on diamond back moth (Test Example 1); conditions: 50 ppm; Chinese cabbage seedling with deposited eggs immersed about 30 seconds; 25° C.; six days after the immersion
Procedure, shortened: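 Mortality was scored six days after treatment by counting hatched insects, in three groups of 10. Treatment meant immersing egg-bearing cabbage seedlings (two days post-oviposition) for about 30 seconds in 50 ppm compound preparation, then drying and holding at 25° C.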

[2] = test system: Common Cutworm (Spodoptera Litura); test: Insecticidal effect on common cutworm (Test Example 2); conditions: 50 ppm; cabbage leaf immersed about 30 seconds; second-instar larvae; 25° C.; eight days after the inoculation
Excerpt: Insecticidal Effect on Common Cutworm (Spodoptera Litura)
A piece of cabbage leaf (cultivar; Shikidori) was immersed for about 30 seconds in a liquid chemical prepared by diluting a preparation containing each compound listed in Table 1, 2 or 3 as an active ingredient to adjust the concentration to 50 ppm. After air-dryness, it was placed in a plastic Petri dish with a diameter of 9 cm and inoculated with second-instar larvae of common cutworm, after which the dish was closed and then allowed to stand in a room thermostatted at 25° C. Eight days after the inoculation, the dead and alive were counted. The mortality was calculated according to the following equation and the insecticidal effect was judged according to the criterion shown in Test Example 1. The test was carried out with triplicate groups of 10 insects. [formula]

[3] = test system: Smaller tea Tortrix (Adoxophyes sp.); test: Insecticidal effect on smaller tea tortrix (Test Example 3); conditions: 50 ppm; tea leaf immersed 30 seconds; larvae; 25° C., humidity 70%; eight days after the inoculation
Procedure, shortened: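 Dead and live larvae of Adoxophyes sp. were counted on day 8, with three replicates of 10 insects each. Larvae had been placed on tea leaves pre-treated by 30 s immersion in a 50 ppm compound solution and kept at 25° C, 70% humidity.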

Row | SMILES | Test Example 1 insecticidal effect (mortality) [1] | Test Example 2 insecticidal effect (mortality) [2] | Test Example 3 insecticidal effect (mortality) [3]
1 | CSCCC(C)NC(=O)c1cccc(I)c1C(=O)Nc1ccc(C(F)(C(F)(F)F)C(F)(F)F)cc1C (stereo not drawn) [Compound No. 162, 6-Iodo-N^1-(4-heptafluoroisopropyl-2-methylphenyl)-N^2-(1-methyl-3-methylthiopropyl)phthalamide] | A (100) | A (100) | A (100)
2 | Cc1cc(C(F)(C(F)(F)F)C(F)(F)F)ccc1NC(=O)c1cccc(I)c1C(=O)NC(C)CCS(C)(=O)=O (stereo not drawn) [Compound No. 196, 3-Iodo-N^1-(4-heptafluoroisopropyl-2-methylphenyl)-N^2-(1-methyl-3-methylsulfonylpropyl)-phthalamide] | A (100) | A (100) | A (100)
3 | CSCCC(C)NC(=O)c1c(I)cccc1C(=O)Nc1ccc(C(F)(C(F)(F)F)C(F)(F)F)cc1C (stereo not drawn) [Compound No. 195, 3-Iodo-N^1-(4-heptafluoroisopropyl-2-methylphenyl)-N^2-(1-methyl-3-methylsulfenylpropyl)-phthalamide] | A (100) | A (100) | A (100)
4 | CSCC(C)NC(=O)c1c(OC(F)(F)F)cccc1C(=O)Nc1ccc(C(F)(C(F)(F)F)C(F)(F)F)cc1C (stereo not drawn) [Compound No. 210, N^1-(4-Heptafluoroisopropyl-2-methylphenyl)-N^2-3-(1-methyl-2-methylthioethyl)-3-trifluoromethoxyphthalamide] | A (100) | A (100) | A (100)
5 | CSCC(C)(C)NC(=O)c1c(F)cccc1C(=O)Nc1ccc(OC(F)(F)F)cc1Cl [compound 385] | A (100) | C (89-80) | 
6 | Cc1cc(OC(F)(F)F)ccc1NC(=O)c1cccc(I)c1C(=O)NC(C)(C)C[S+](C)[O-] (stereo not drawn) [compound 141] | A (100) | A (100) | 
7 | CSCC(C)NC(=O)c1c(I)cccc1C(=O)Nc1ccc(OC(F)(F)F)cc1Cl (stereo not drawn) [compound 233] | A (100) | A (100) | 
8 | CSCC(C)NC(=O)c1c(C(=O)Nc2ccc(C(F)(F)C(F)(F)F)cc2C)ccc(F)c1Cl (stereo not drawn) [compound 148] | A (100) | C (89-80) | 
9 | Cc1cc(C(F)(F)C(F)(F)F)ccc1NC(=O)c1cccc(I)c1C(=O)NC(C)CCC[S+](C)[O-] (stereo not drawn) [compound 133] | A (100) | A (100) | 
10 | CC(C)(CS(C)(=O)=O)NC(=O)c1c(Br)cccc1C(=O)Nc1ccc(OC(F)(F)F)cc1Cl [compound 228] | A (100) | A (100) | 
11 | Cc1cc(OC(F)(F)F)ccc1NC(=O)c1cccc(I)c1C(=O)NC(C)CSc1ccccn1 (stereo not drawn) [compound 74] | A (100) | D (79-50) | 
12 | Cc1cc(OC(F)(F)F)ccc1NC(=O)c1ccc(Cl)c(Cl)c1C(=O)NC(C)C[S+](C)[O-] (stereo not drawn) [compound 193] | A (100) | D (79-50) | 
13 | CC(C[S+](C)[O-])NC(=O)c1c(Cl)cccc1C(=O)Nc1ccc(OC(F)(F)F)cc1Cl (stereo not drawn) [compound 381] | A (100) | A (100) | 
14 | CSCC(C)NC(=O)c1c(C(=O)Nc2ccc(C(F)(C(F)(F)F)C(F)(F)F)cc2C)ccc(F)c1Cl (stereo not drawn) [compound 149] | A (100) | A (100) | 
15 | CNC(=S)SCC(C)NC(=O)c1c(I)cccc1C(=O)Nc1ccc(C(F)(C(F)(F)F)C(F)(F)F)cc1C (stereo not drawn) [compound 425] | A (100) | A (100) | 
16 | CCN(CCSC)C(=O)c1c(F)cccc1C(=O)Nc1ccc(C(F)(C(F)(F)F)C(F)(F)F)cc1C [2-5] | A (100) | C (89-80) | 
17 | CSCC(C)NC(=O)c1c(C(=O)Nc2ccc(C(F)(C(F)(F)F)C(F)(F)F)cc2C)cccc1S(C)(=O)=O (stereo not drawn) [Compound No. 191, N^1-(4-Heptafluoroisopropyl-2-methylphenyl)-N^2-(1-methyl-2-methylthioethyl)-3-methylsulfonylphthalamide] | A (100) | A (100) | 
18 | Cc1cc(C(F)(F)C(F)(F)F)ccc1NC(=O)c1cccc(Cl)c1C(=O)NC(C)C[S+](C)[O-] (stereo not drawn) [compound 144] | A (100) | A (100) | 
19 | CCS(=O)(=O)CC(C)(C)NC(=O)c1c(I)cccc1C(=O)Nc1ccc(OC(F)(F)F)cc1C [compound 250] | A (100) | A (100) | 
20 | CSCC(C)NC(=O)c1cc(I)ccc1C(=O)Nc1ccc(C(F)(F)C(F)(F)F)cc1C (stereo not drawn) [compound 108] | A (100) | A (100) | 
21 | CSCC(C)NC(=O)c1c(C(=O)Nc2ccc(OC(F)(F)F)cc2C)ccc2c1OC(F)(F)O2 (stereo not drawn) [compound 290] | A (100) | D (79-50) | 
22 | CCN(CSC)C(=O)c1c(Cl)cccc1C(=O)Nc1ccc(C(F)(C(F)(F)F)C(F)(F)F)cc1C [2-8] | A (100) | A (100) | 
23 | CC(CS(C)(=O)=O)NC(=O)c1c(I)cccc1C(=O)Nc1cc2c(cc1Cl)OC(F)C(F)(F)O2 (stereo not drawn) [compound 102] | A (100) | A (100) | 
24 | CCN(CSC)C(=O)c1c(Cl)cccc1C(=O)Nc1ccc(OC(F)(F)C(F)(F)F)cc1C [2-17] | A (100) | A (100) | 
25 | Cc1cc(OC(F)(F)F)ccc1NC(=O)c1cccc(I)c1C(=O)NC(C)CSC(C)C (stereo not drawn) [compound 5] | A (100) | A (100) | 
